“Also recorded” adds a separate entry of the source.
Legend:
[1] = tested on: Prognostic Epigenetic Signature (PES, 25-gene signature) in HCV Jc1-infected Huh7.5.1dif cells; assay: PES cell-based model: HCV-infected differentiated Huh7.5.1 cells, PES expression by RNA-Seq or nCounter; set-up: species or system human; settings: JQ1 50 nM, Nizatidine 10 μM, Captopril 1 μM, Pioglitazone 1 μM
Protocol: Cell-based models. Huh7.5.1 and human stellate LX2 cells were cultured in Dulbecco's Modified Eagle Medium (DMEM) supplemented with 10% heat-decomplemented fetal bovine serum FBS, gentamycin (0.05 mg/mL) and non-essential amino acids (complete DMEM) at 37° C. with 5% CO2. For proliferation arrest and differentiation ([…] cells), Huh7.5.1 cells were cultured in complete DMEM supplemented 1% DMSO [5]. All cell lines were certified mycoplasma-free. To analyze the PES induction […] cells were infected with HCV Jc1 (genotype 2a/2a) for a total of 10 days. Cells were then treated with Captopril (1 μM), Nizatidine (10 μM), Pioglitazone (1 μM), JQ1 (50 nM). For the FFA model, Huh7.5.1^dif cells were cocultured with 20% LX-2 cells. Following co-culture for 3 days in DMEM supplemented with 10% heat-decomplemented FBS, gentamycin and 1% DMSO at 37° C. and 5% CO2, cells were incubated with FFA (800 μM oleic acid and 400 μM palmitic acid) for 72 h.
Analysis of gene expression of the prognostic epigenetic signature (PES) using nCounter expression or RNASeq analyses. Profiling of the PES was performed using Nanostring nCounter assay or RNASeq as described. Induction or suppression of the PES in gene expression data was determined as previously reported using the Gene Set Enrichment Analysis (GSEA), implemented in GenePattern genomic analysis toolkits. […]

[2] = tested on: 1693-gene signature and 25-gene signature (PES); assay: Transcriptomic profiling (RNA-Seq, GSEA) of livers of DEN/CDAHFD mice; type: in vivo, mouse
Protocol: ChIPmentation based ChIP-Seq and RNA next-generation sequencing (NGS). ChIPmentation-based ChIP-Seq was performed as described. RNA-Seq was performed as described. Mouse RNA-Seq data was processed as described for patient's data but was instead mapped to the mouse genome mm10 and annotated using the Gencode vM15 gene annotation. Processing of ChIPmentation data was described, and data was partially derived from BioProject PRJNA506130. Since late stage fibrosis patients have the highest HCC risk, patient tissues from late stage fibrosis (F3 and F4) samples were included for all H3K27ac analyses as well as from the external CHC RNA-Seq dataset (GSE84346)[12]. Transcriptomic data for NASH patients was derived from external expression dataset (GSE115193)[13] and data for DAA-cured patients was published in BioProject PRJNA506130[6]. The RNA-Seq data from HCV-infected liver cells was published in (GSE126831)[14].
Analysis of gene expression of the prognostic epigenetic signature (PES) using nCounter expression or RNASeq analyses. Profiling of the PES was performed using Nanostring nCounter assay or RNASeq as described. Induction or suppression of the PES in gene expression data was determined as previously reported using the Gene Set Enrichment Analysis (GSEA), implemented in GenePattern genomic analysis toolkits. False discovery rate (FDR)<0.05 was regarded as statistically significant. […]

[3] = tested on: DEN and CDAHFD-induced hepatocarcinogenesis; assay: DEN/CDAHFD NASH-fibrosis-HCC mouse model: liver disease, fibrosis and tumor burden; type: in vivo; settings: DEN/CDAHFD mice
From the text: FIG. 8. Reversal of the PES poor prognosis status in vivo by a bromodomain-4 inhibitor translates into improvement of liver disease and cancer prevention (A) Schematic representation of in vivo the proof-of-concept study using a mouse model of DEN and choline-deficient, L-amino acid-defined, high-fat diet (CDAHFD)-induced hepatocarcinogenesis. (B) Transcriptomic changes of genes with significant H3K27ac modifications from livers from patients with NASH and chronic hepatitis C (CHC) as explained in FIG. 1D (overlapping genes) and corresponding changes in vehicle or JQ1-treated DEN/CDAHFD mice. (C) Venn diagram showing epigenetically and transcriptionally altered genes in CHC/NASH patients and in DEN/CDAHFD mice, that were corrected by JQ1 treatment. Genes that harbor epigenetic and transcriptomic changes were identified in CHC/NASH patients and in DEN/CDAHFD mice. Among the changed genes, the inventors analyzed whether JQ1 could revert back their H3K27ac levels and their transcript expression levels. (H) GSEA enrichments of 1693-gene signature and 25-gene signature (PES) gene sets in data shown for JQ1-treated DEN/CDAHFD mice. (D) Improvement of liver disease and prevention of HCC. The global status corresponds to the difference between low risk- and high risk-gene expression. GSEA enrichments of 1693-gene signature and 25-gene signature (PES) gene sets in data shown for JQ1-treatment on panel B. The global status corresponds to the difference between low risk- and high risk-gene expression. […] Results are expressed as means±SEM. (F) Representative macroscopic photographs of livers (×1.5 magnified), H&E and Sirius red staining of liver sections from vehicle and JQ1-treated mice. Tumor nodules are indicated by an arrowhead and are delimited by dashed lines. […] Fibrosis stage was evaluated through quantitative digital analysis of whole-scanned liver sections (collagen proportional area (CPA)) in JQ1-treated (n=3) compared with JQ1-untreated (n=3) mice. Results are expressed as means±SD.
Example 5: Reversal of the PES poor prognosis status in vivo translates into improvement of liver disease, inhibition of fibrosis progession and cancer prevention. To investigate (1) whether the PES is modeled in animal models for liver disease and (2) reversal of the […] poor prognosis status by a compound correlates with improvement of liver disease and cancer prevention, the inventors studied the 1693 gene signature and the 25 gene subset expression in a NASH-fibrosis-HCC mouse model, in which the mice are treated with the BRD inhibitor JQ1 following development of liver disease. In this model a Choline-deficient high-fat-diet (CDHFD) diet combined with DEN, a chemical carcinogen, induces liver fibrosis progressing to HCC. […] Mice were treated with JQ1 after 6 weeks of CDAHFD feeding when liver disease developed (FIG. 8A).

| Compound | Reversal of PES (25-gene signature) from HCC high risk, poor prognosis status to HCC low risk, good prognosis status [1] | GSEA enrichment of 1693-gene signature and 25-gene signature (PES) gene sets after treatment [2] | Expression of H3K27ac-altered genes in patients reverted by treatment ([2]; 1007 out of 1693 genes) [%] | Tumor burden in vivo [3] | Liver fibrosis measured by collagen proportionate area (CPA) ([3]; treated n=3 vs untreated n=3) | Body weight ([3]; treated n=8 vs untreated n=8) | Liver weight ([3]; treated n=8 vs untreated n=8) | Number of tumor nodules ([3]; treated n=8 vs untreated n=8) |
| --- | --- | --- | --- | --- | --- | --- | --- | --- |
| Cc1sc2c(c1C)C(c1ccc(Cl)cc1)=N[C@@H](CC(=O)OC(C)(C)C)c1nnc(C)n1-2 [JQ1] | Reversal of the poor prognosis/HCC high risk genes to good prognosis/HCC low risk expression; also recorded: reverted the 25-gene signature (PES) | correspondingly (i.e., reversely) enriched | 59 | significantly reduces tumor burden | efficiently reduces liver fibrosis; also recorded: significantly (p<0.05) reduced | stable; also recorded: without altering | significantly reduced | reduced; also recorded: overall decrease in their number |
| CNC(=C[N+](=O)[O-])NCCSCc1csc(CN(C)C)n1 [Nizatidine] | Reversal of the poor prognosis/HCC high risk genes to good prognosis/HCC low risk expression |  |  |  |  |  |  |  |

Source: patent US20230313299A1, “METHOD FOR DIAGNOSIS AND/OR PROGNOSIS OF LIVER DISEASE PROGRESSION AND RISK OF HEPATOCELLULAR CARCINOMA AND DISCOVERY OF THERAPEUTIC COMPOUNDS AND TARGETS TO TREAT LIVER DISEASE AND CANCER” (UNIVERSITÉ DE STRASBOURG, priority 2020, published 2023)
